The structures appear in SMILES notation.

Consider two compounds from US7795305B2, “CDDO-compounds and combination therapies thereof” (Board of Regents, The University of Texas System, priority 2000, dated 2010).

The subject of experiment [1] is primary AML samples. The experiment can be described thus: Annexin V staining of primary AML samples exposed to PPARγ ligands. The class given is cell-based, human. As to conditions: 72 hrs; 15d-PGJ2 5 μM; BRL49653, L-805645, GW347845X 25 μM. The protocol: (§1) Annexin V staining. Cells were washed in phosphate-buffered saline (PBS) and resuspended in 100 μl of binding buffer containing Annexin V (Roche Diagnostic Corporation, Indianapolis, Ind.). Cells were analyzed by flow cytometry after the addition of propidium iodide (PI). Annexin V binds to those cells that express phosphatidylserine on the outer layer of the cell membrane, and PI stains the cellular DNA of those cells with a compromised cell membrane. This allows for live cells (unstained with either fluorochrome) to be discriminated from apoptotic cells (stained only with annexin V) and necrotic cells (stained with both annexin and PI).

The test system of experiment [2] is D9 cells, vector control. The experiment can be described thus: Annexin V / cell number in D9 vector control cells. As to conditions: 3 μM (CDDO: 5 hrs). The class given is cell-based. How it is done: as §1
(§2) To characterize the correlation between PPARγ and caspase activation, caspase-3 levels in D9 cells transfected with wt-PPARγ were analyzed. Six different single cell-derived clones were treated with 3 μM CDDO or vehicle controls for 5 hrs. Caspase-3 cleavage was analyzed by Western blot. A decrease in pro-caspase-3 with appearance of the cleaved product was readily observed in all clones. The degree of cleavage was higher in PPARγ-transfected than in vector control cells that express endogenous PPARγ. […] These changes correlated with plasma membrane changes: vector control=47.0% annexin V-positive cells; wt-PPARγ-transfected cells=73.3±1.1% annexin V (+), n=6. […] PPARγ-transfected cells were also more sensitive to PPARγ-ligand 15d-PGJ2 (41.00% vs 16.0% annexin (+) cells at 3 μM).
To characterize the correlation between PPARγ and caspase activation, caspase-3 levels in D9 cells transfected with wt-PPARγ were analyzed. Six different single cell-derived clones were treated with 3 μM CDDO or vehicle controls for 5 hrs. Caspase-3 cleavage was analyzed by Western blot. A decrease in pro-caspase-3 with appearance of the cleaved product was readily observed in all clones. The degree of cleavage was higher in PPARγ-transfected than in vector control cells that express endogenous PPARγ. […] These changes correlated with plasma membrane changes: vector control=47.0% annexin V-positive cells; wt-PPARγ-transfected cells=73.3±1.1% annexin V (+), n=6. […]

For experiment [3], the system named is HL-60 cells. Put plainly: Viable cell count of leukemic cells in suspension culture (Trypan blue). The class given is cell-based, human. As to conditions: read-out: concentration required for 50% inhibition of HL-60 cells; PPARγ ligands compared to CDDO. How it is done: Suspension culture of leukemic cells. Leukemic cell lines were cultured at a density of 3.0×10^5 cells/mL, and AML mononuclear cells at 5×10^5 cells/mL in the presence or absence of indicated concentrations of CDDO-Me. Appropriate amounts of DMSO (final concentration<0.05%) was included as a control. For cytotoxicity studies, 1 μM ara-C was added to the cultures.
CDDO. […] The percentage of proliferating cells were analyzed by FCM.
CDDO-Me. […] Mechanism of growth inhibition was analyzed on cell cycle and apoptosis in HL-60 cells.

Experiment [4] relates to HL-60 cells. The experiment can be described thus: Differentiation by CD11b/CD14 flow cytometry. As to conditions: 7 days, concentration 1 (column head M). The format is cell-based, human. The protocol:
Immunophenotyping. The PE-conjugated anti-CD11b, FITC-conjugated anti-CD14 monoclonal antibody (mAb) (Becton Dickinson) and PE-conjugated anti-CD95 mAb (PharMingen) were used at a 1/10 dilution.
Enhancement in cellular differentiation using combinations of CDDO with ATRA were tested. […] Cell differentiation was analyzed by flow cytometry (CD14/CD11b staining). […] These experiments were repeated. […]
Finally, the inventors examined if CDDO-Me combined with ATRA would enhance differentiation. […] […] Next, combined treatment with CDDO-Me and RXR-specific ligand were tested for potentiation of anti-leukemic effects.

For experiment [5], the system named is HL-60 cells. The settings on record: 15d-PGJ2 at 3 μM, BRL49653 at 5 μM (Tontonoz et al., 1998); cited from earlier work.
The test system of experiment [6] is leukemic cell lines. Put plainly: Proliferation of leukemic cell lines (cell count and 3H incorporation). The class given is cell-based. As to conditions: read-out: IC50, proliferation of leukemic cells.
Experiment [7] deals with HL-60 cells. The settings on record: 15d-PGJ2 at 3 μM, BRL49653 at 5 μM (Tontonoz et al., 1998); cited from earlier work. The source holds these as a separate data set.
The subject of experiment [8] is wt-PPARγ-transfected D9 cells. Put plainly: Annexin V / cell number in wt-PPARγ-transfected D9 cells. The format is cell-based. As to conditions: 3 μM (CDDO: 5 hrs, n=6). The protocol: as §1, §2
as §2, with “(41.0%” for “(41.00%”
The sensitivity of leukemic cells that overexpress PPARγ to CDDO-induced killing was tested. Vector control (pcDNA) or wt-PPARγ-transfected D9 cells (2 different clones) were treated 0.2 μM of CDDO for 48 hrs. Cell viability was assessed by cell count after Trypan blue exclusion, and apoptosis determined by PS/annexin V/Propidium Iodide (PI) flow cytometry. Leukemic cells transfected with PPARγ expressed 2.8-3.7-fold higher amounts of protein compared with vector controls. […] Importantly, CDDO increased PPARγ expression in both, vector control and transfected cells. […]

In experiment [9] the test system is HL-60 cells. Put plainly: Differentiation by CD11b/CD14 flow cytometry. The class given is cell-based, human. As to conditions: 7 days. On the technique in general: In flow cytometry, cells or beads pass a laser one at a time.
Experiment [10] deals with melanoma xenografts. The settings on record: oral 10-30 mg/kg daily for 3 wk or 10 mg/kg injected in the tumor; cited from earlier work.

On to `CCCCC/C=C/C=C1/C(=O)C=C[C@@H]1C/C=C\CCCC(=O)O` [15d-PGJ2, 15-deoxyΔ^12,14PGJ2], for which, in experiment [1], the annexin-V-positive cells was 27.7%. In [2], the “annexin V-positive cells” value is listed as 16.0%. For the same compound, the figures for the IC50 in experiment [3] and in experiment [6] were 5 µM and 5 to 10 µM, respectively. Moreover, the CD11b % in experiment [4] is on record as 34.1%; in experiment [9] (10 μM (15d-PGJ2 column head prints M)), 88.9%; in experiment [9] (concentration 3 (column head M)) it was 49.4%; in experiment [9] (concentration 5 (column head M)) it was 83.9%. In experiment [5], the “killing of HL-60 cells” value is reported as “no killing”. For the same compound, the “monocytic differentiation of HL-60 cells” value in experiment [7] is “induce monocytic differentiation”. The “annexin V (+) cells” value in [8] was found to be 41.0%.

With `O=C(O)c1ccc2cc(-c3ccc(O)c(C45CC6CC(CC(C6)C4)C5)c3)ccc2c1` [CD437], the “growth of melanoma xenografts in vivo” value in experiment [10] is reported as “caused growth inhibition of melanoma xenografts”.
